Test system: Zymoseptoria tritici (SEPTTR)
Test: Field assessment of Zymoseptoria tritici (SEPTTR) in wheat, three field trials
Assay type: in vivo, Zymoseptoria tritici on winter wheat (TRZAW)
Settings: average over 3 field trials
Text: Treatments consisted of the compound of Formula I and chlorothalonil either using individually or as a two-way mixture with the compound of Formula I. The compound of Formula I was applied with Agnique BP-420 (50% w/w at 0.3% v/v) at 75 and 150 g ai/ha and chlorothalonil (Bravo 500) was applied at 375 and 500 g ai/ha. Commercial standards used in the studies were Fluxapyroxad (Imtrex), applied at 100 g ai/ha, and Metconazole+Fluxapyroxad (Librax), applied at 161 g ai/ha.
Field Assessment of Zymoseptoria tritici (SEPTTR) in Wheat:
Fungicidal treatments containing the compound of Formula I and chlorothalonil, either individually or as a two way mixture, were assessed against leaf spot of wheat (SEPTTR) in three separate field trials. In the first trial, fungicidal treatments were applied at BBBCH37 (curative, 3% infection at application on L3) growth stage of winter wheat (TRZAW, Dinosor variety) under naturally occurring infection with SEPTTR. The treatments were part of an experimental trial designed as a randomized complete block with four replications and a plot of approximately 1×6 m. Treatments were applied at water volume of 200 L/ha, using a backpack plot sprayer (BKPCKENG, FLATFANA nozzle) and pressurized at 200 kPa.
In the second trial, fungicidal treatments were applied twice at BBCH32 (curative, 25% infection at application on L5) and BBBCH37-39 (5% infection at application on L3) growth stages of winter wheat (TRZAW, Consort variety) under naturally occurring infection with SEPTTR. The treatments were part of an experimental trial designed as a randomized complete block with four replications and a plot of approximately 1×2 m. Treatments were applied at water volume of 200 L/ha, using a backpack plot sprayer (BKPCKAIR, Flat fan nozzle) and pressurized at 210 kPa.
In the final trial, fungicidal treatments were applied twice at BBCH32 (protective, 15% infection at application on L6) and BBBCH37-39 (12% infection at application on L5) growth stages of winter wheat (TRZAW, Smaragd variety) under naturally occurring infection with SEPTTR. […]
Disease severity (percentage of visual diseased foliage on whole plot or leaves) in […] was recorded following EPPO PP1/26 guideline prescriptions. Area under the disease progress curve (AUDPC) was calculated for each plot in both trials using the sets of recorded severity data. Relative AUDPC (% control based on AUDPC) was calculated as percent of the nontreated control. Final results for the control of leaf spot of wheat by the compound of Formula I, chlorothalonil, and mixtures are reported as an average of the relative AUDPC calculated over all three field trials. […]

SMILES | SEPTTR % Control based on AUDPC (375 g ai/ha) [%] | SEPTTR % Control based on AUDPC (500 g ai/ha) [%] | SEPTTR % Control based on AUDPC (75 g ai/ha, with Agnique BP-420 (50% w/w at 0.3% v/v)) [%] | SEPTTR % Control based on AUDPC (150 g ai/ha, with Agnique BP-420 (50% w/w at 0.3% v/v)) [%]
N#Cc1c(Cl)c(Cl)c(Cl)c(C#N)c1Cl [Chlorothalonil, tetrachloroisophthal-onitrile] | 31.8 | 37.8 |  | 
N#Cc1ccc(Oc2ccc(C(F)(F)C(O)(Cn3nc[nH]c3=S)c3ccc(F)cc3F)nc2)cc1 (stereo not shown) [Compound I, 4-((6-(2-(2,4-difluorophenyl)-1,1-difluoro-2-hydroxy-3-(5-thioxo-4,5-dihydro-1H-1,2,4-triazol-1-yl)propyl)pyridin-3-yl)oxy)benzonitrile] |  |  | 61.2 | 72.2

Reference: patent publication US20190297890A1, “FUNGICIDAL COMPOUNDS AND MIXTURES FOR FUNGAL CONTROL IN CEREALS” (Dow AgroSciences LLC, priority 2016, published 2019)
